Measurements: patent US6515025B2, “Use of ethynyl alanine amino diol compounds to inhibit enzymatic conversion of angiotensinogen to angiotensin I” (Pharmacia Corporation, priority 1991, dated 2003)
Values joined by “and” are separate entries in the source; they are usually repeats but may differ in a detail not shown here. Identical values can stand only once. Like-named read-outs stand apart in the source and are kept apart here.

Assay: Oral bioavailability studies in dogs (plasma concentration by bioassay)
Assay type: in vivo
Settings: dog
Experimental: The bioavailability in marmosets and dogs was determined by sampling the blood via the femoral vein at various time points after administering the renin inhibitor compounds of the invention in polyethylene glycol 400 at an intragastric dose of 10 mg/kg or at an intravenous dose of 1 mg/kg. Compound concentration in plasma was determined using the bioassay technique described below. The percent bioavailability was calculated by dividing the area under the concentration-vs.-time curve obtained from the intragastric experiment by the area under the concentration-vs.-time curve obtained from the intravenous experiment (adjusting for different doses), and multiplying the result by 100%. The bioavailibility of Example 1 compound is 27% in marmosets and 33% in dogs.
Renin inhibitor plasma concentrations were determined by a bioassay. The plasma samples were extracted with acetonitrile and the extract was evaporated to dryness under nitrogen. Residue was dissolved in 4% bovine serum albumin containing 0.9% NaCl and 5% EDTA. The dissolved residue (0.1 ml) was incubated with a reaction mixture containing human plasma (0.12 ml), 5% phenylmethysulfonylfluoride (1.2 ul), 10% neomycin (2.4 ul), 0.5 M TES buffer (pH 7.4, 24 ul), and 0.6 mU/ml recombinant human renin (1000 U/mg, 50 ul) at 37° C. for 90 minutes. The renin activity was determined by a standard angiotensin I radioimmunoassay (New England Nuclear Corp.). The amount of test compound in the plasma was determined by comparing the extent of inhibition of renin activity with that produced by a known amount of test compound added to plasma and analyzed above.

For `C#CC[C@H](NC(=O)C(CC(=O)N(C)CCN(C)C)Cc1ccccc1)C(=O)NC(CC1CCCCC1)[C@@H](O)C(O)CC(C)C` (relative stereo) [Example 1, N1-[1R*-[[[1S,1R*-(cyclohexylmethyl)-2S*,3R*-dihydroxy-5-methylhexyl]amino]carbonyl]-3-butynyl]-N4-[2-(dimethylamino)ethyl]-N4-methyl-2S*-(phenylmethyl)butanediamide], the “Oral (%) Bioavail, Mean ± SE” value (IG 10 mg/kg vs IV 1 mg/kg) was 33.1 ± 3.8%, the “Oral (%) Bioavail” value (IG 10 mg/kg vs IV 1 mg/kg, individual animals) was 35.8% and 25.6% and 38.0% and the “Estimated Plasma Concentration” value (IG at 10 mg/kg, 15 min, individual animals, 10 mg/kg) was 105.7 ng/mL and <2.0 ng/mL and 265.6 ng/mL. The “Estimated Plasma Concentration” value (IG at 10 mg/kg, 30 min, individual animals, 10 mg/kg) was 495.9 ng/mL and 330.4 ng/mL and 864.7 ng/mL, the “Estimated Plasma Concentration” value (IG at 10 mg/kg, 1 hr, individual animals, 10 mg/kg) was 859.6 ng/mL and the “Estimated Plasma Concentration” value (IG at 10 mg/kg, 2 hr, individual animals, 10 mg/kg) was 352.7 ng/mL and 554.5 ng/mL. The “Estimated Plasma Concentration” value (IG at 10 mg/kg, 4 hr, individual animals, 10 mg/kg) was 68.8 ng/mL and 130.3 ng/mL, the “Estimated Plasma Concentration” value (IG at 10 mg/kg, 6 hr, individual animals, 10 mg/kg) was 47.1 ng/mL and 72.4 ng/mL and the “Estimated Plasma Concentration” value (IG at 10 mg/kg, 8 hr, individual animals, 10 mg/kg) was 25.4 ng/mL and 45.4 ng/mL. For the same molecule, the “Estimated Plasma Concentration” value (IG at 10 mg/kg, 24 hr, individual animals, 10 mg/kg) was 8.4 ng/mL and 8.0 ng/mL, the “Estimated Plasma Concentration” value (IV at 1 mg/kg, 2 min, individual animals, 1 mg/kg) was 3284.4 ng/mL and 2982.7 ng/mL and the “Estimated Plasma Concentration” value (IV at 1 mg/kg, 5 min, individual animals, 1 mg/kg) was 680.9 ng/mL and 521.1 ng/mL. The “Estimated Plasma Concentration” value (IV at 1 mg/kg, 10 min, individual animals, 1 mg/kg) was 307.1 ng/mL and 218.0 ng/mL, the “Estimated Plasma Concentration” value (IV at 1 mg/kg, 15 min, individual animals, 1 mg/kg) was 144.4 ng/mL and 146.9 ng/mL and the “Estimated Plasma Concentration” value (IV at 1 mg/kg, 30 min, individual animals, 1 mg/kg) was 102.8 ng/mL and 122.5 ng/mL. The “Estimated Plasma Concentration” value (IV at 1 mg/kg, 1 hr, individual animals, 1 mg/kg) was 67.6 ng/mL and 50.0 ng/mL, the “Estimated Plasma Concentration” value (IV at 1 mg/kg, 2 hr, individual animals, 1 mg/kg) was 56.0 ng/mL and 69.8 ng/mL and the “Estimated Plasma Concentration” value (IV at 1 mg/kg, 4 hr, individual animals, 1 mg/kg) was 23.5 ng/mL. For the same molecule, the “Estimated Plasma Concentration” value (IV at 1 mg/kg, 6 hr, individual animals, 1 mg/kg) was 10.2 ng/mL and 13.5 ng/mL, the “Estimated Plasma Concentration” value (IV at 1 mg/kg, 8 hr, individual animals, 1 mg/kg) was 4.9 ng/mL and 6.1 ng/mL and the “Estimated Plasma Concentration” value (IV at 1 mg/kg, 24 hr, individual animals, 1 mg/kg) was 1.5 ng/mL and 1.3 ng/mL. For the same molecule, the Vd (individual animals) was 8.7 L/kg and 8.3 L/kg, the t1/2 (individual animals) was 4.4 h and 4.3 h and the half-life (plasma, dogs, read-out: terminal half-life (converted)) was 4.7 h. It also gave a Vd (plasma, dogs, read-out: volume of distribution) of 9.5 L/kg, a Vd (plasma, individual animals, read-out: Vd) of 11.5 L/kg and a half-life (plasma, individual animals, read-out: t1/2 (converted)) of 5.3 h. For the same molecule, the concentration at 2 min (plasma, iv, 1 mg/kg, IV at 1 mg/kg, 2 min, individual animals, read-out: Estimated Plasma Concentration) was 2420 ng/mL, the concentration at 2 min (plasma, iv, 1 mg/kg, IV at 1 mg/kg, 2 min, read-out: Estimated Plasma Concentration, Mean ± SE) was 2890 ± 254 ng/mL and the concentration at 5 min (plasma, iv, 1 mg/kg, IV at 1 mg/kg, 5 min, individual animals, read-out: Estimated Plasma Concentration) was 613 ng/mL. The concentration at 5 min (plasma, iv, 1 mg/kg, IV at 1 mg/kg, 5 min, read-out: Estimated Plasma Concentration, Mean ± SE) was 605 ± 46.3 ng/mL, the concentration at 10 min (plasma, iv, 1 mg/kg, IV at 1 mg/kg, 10 min, individual animals, read-out: Estimated Plasma Concentration) was 299 ng/mL and the concentration at 10 min (plasma, iv, 1 mg/kg, IV at 1 mg/kg, 10 min, read-out: Estimated Plasma Concentration, Mean ± SE) was 275 ± 28.4 ng/mL. For the same molecule, the concentration at 15 min (plasma, iv, 1 mg/kg, IV at 1 mg/kg, 15 min, individual animals, read-out: Estimated Plasma Concentration) was 218 ng/mL.
